According to EPA's ToxRefDB 2:

Columns and labels:
[1] = system: dog; settings: Sub-acute repeat dose toxicity, beagle, Injection, Intravenous, dose end: 4 week, group: systemic
[2] = system: rat; settings: Fertility (Segment I); wistar; Injection; Intravenous; dose end: 7 GD; group: parental; systemic / in life observation / clinical signs / motor activity + systemic / in life observation / clinical signs / urine, discoloration + …
[3] = system: rat; settings: Combined chronic toxicity/carcinogenicity; sprague dawley; Oral; Feed; dose end: 104 week; group: systemic; systemic / pathology microscopic / liver / hypertrophy + systemic / pathology microscopic / stomach / hyperkeratosis + systemic / pathology …
[4] = system: rat; settings: Multigenerational reproductive toxicity study, sprague dawley, Oral, Feed, dose end: 2 generation
[5] = system: rat; settings: Combined chronic toxicity/carcinogenicity, fischer, Oral, Feed, dose end: 129 week, group: systemic
[6] = system: mouse; settings: Carcinogenicity, cd1, Oral, Feed, dose end: 104 week, group: systemic
[7] = systemic / in life observation / clinical signs / vomitting + systemic / organ weight / prostate / nos
[8] = group: offspring, systemic / in life observation / body weight / offspring (pup) weight
[9] = group: parental, systemic / pathology microscopic / stomach / hyperkeratosis + systemic / pathology microscopic / stomach / hyperplasia + systemic / …
[10] = systemic / pathology microscopic / kidney / adenoma + systemic / pathology microscopic / kidney / carcinoma
[11] = systemic / pathology microscopic / kidney / adenoma + systemic / pathology microscopic / kidney / carcinoma + systemic / pathology …
[12] = systemic / pathology microscopic / kidney / hyperplasia + systemic / pathology microscopic / stomach / carcinoma + systemic / pathology …

Structure (SMILES): CC(C)c1ccc(C(=O)N=C(N)N)cc1S(C)(=O)=O.CS(=O)(=O)O [Cariporide mesylate]
- NEL ([1]; systemic / in life observation / clinical signs / vomitting): 5 mg/kg/day
- LEL [1, 7]: 20 mg/kg/day
- LOAEL [1, 7]: > 20 mg/kg/day
- NOAEL [1, 7]: ≥ 20 mg/kg/day
- LEL [2]: 100 mg/kg/day
- LOAEL [2]: > 100 mg/kg/day
- NEL [2]: 25 mg/kg/day
- NOAEL [2]: ≥ 100 mg/kg/day

Structure (SMILES): N#Cc1c(Cl)c(Cl)c(Cl)c(C#N)c1Cl [Chlorothalonil]
- LEL [3]: 0.7 mg/kg/day
- LOAEL [3]: 0.9 mg/kg/day
- NEL [3]: < 0.7 mg/kg/day
- NOAEL [3]: < 0.9 mg/kg/day
- LEL [4, 8]: 38 mg/kg/day
- LOAEL [4, 8]: 234 mg/kg/day
- NEL [4, 8]: < 38 mg/kg/day
- NOAEL [4, 8]: 115 mg/kg/day
- LEL [4, 9]: 38 mg/kg/day
- LOAEL [4, 9]: 38 mg/kg/day
- NEL [4, 9]: < 38 mg/kg/day
- NOAEL [4, 9]: < 38 mg/kg/day
- LOAEL [5, 10]: 40 mg/kg/day
- NOAEL [5, 10]: < 40 mg/kg/day
- LEL [5, 11]: 40 mg/kg/day
- NEL [5, 11]: < 40 mg/kg/day
- LOAEL ([6]; systemic / pathology microscopic / kidney / hyperplasia): 26.2 mg/kg/day
- NEL [6, 12]: 1.5 mg/kg/day
- NOAEL [6, 12]: 6 mg/kg/day
- LEL ([6]; systemic / pathology microscopic / stomach / hyperkeratosis + systemic / pathology microscopic / stomach / hyperplasia): 6 mg/kg/day
